Data from patent US8748462B2, “Spirocyclic GPR40 modulators” (Amgen Inc., priority 2008, dated 2014).

How the values were obtained:
human GPR40 [1] = target: T1, human GPR40 (Homo sapiens, UniProt O14842); experiment: Inositol phosphate accumulation assay; type: cell-based; conditions: A9 cell line stably transfected with GPR40; 1 hour at 37° C.; read-out: IP3 EC50
T1 construct: expressed in transfected cells; host or cells: CHO cells stably transfected with GPR40 and Aequorin
Protocol: An A9 cell line stably transfected with GPR40 (A9_GPR40) was used in IP accumulation assays. A9_GPR40 cells were plated in 96-well plates containing 20,000 cells/well in DMEM containing 10% FBS. After the cells attached to the well surface, the media was replaced with inositol free DMEM containing 10% dialyzed FBS and 1 μCi, mL ^3H-inositol and incubated for 16 hours. Compounds were diluted in HBSS/10 mM LiCl containing a desired amount of HSA and added directly to cells. Following 1 hour incubation at 37° C., the media was replaced with 100 μL of 20 mM formic acid to quench the reaction. 50 μL of the extract was then added to 100 μL of SPA beads, incubated overnight, and measured on a TopCount the following day.

human GPR40 [2] = target: T1, human GPR40; experiment: Cell-based aequorin assay; conditions: CHO cells stably transfected with GPR40 and aequorin; 0.01% HSA
Protocol: Cell-based aequorin assays were employed to characterize the modulatory activity of compounds on the GPR40 signaling pathway. In an exemplary assay, CHO cells were stably transfected with both GPR40 and Aequorin (Euroscreen). Cells were detached from the tissue culture dish with 2 mL of trypsin (0.25% (w/v)). Trypsinization was halted with 28 mL of Hanks Buffered Salt Solution containing 20 mM Hepes (H/HBSS) and 0.01% fatty acid-free human serum albumin (HSA). Coelantrazine is added to 1 ug/mL, and the cells were incubated for 2 hours at room temperature. Compounds were dissolved in DMSO for preparation of 10 mM stock solutions. Compounds were diluted in H/HBSS containing 0.01% HSA. Serial dilutions of the test compounds were prepared to determine dose response.
Aequorin luminescence measurements were made using an EG&G Berthold 96-well luminometer, and the response was measured over a 20 second interval after cells and compounds were mixed. The maximum relative light units was plotted to determine dose response. The EC50 (effective concentration to reach 50% maximal response) was determined from the dose response plot.

T1 sequence (O14842 whole entry): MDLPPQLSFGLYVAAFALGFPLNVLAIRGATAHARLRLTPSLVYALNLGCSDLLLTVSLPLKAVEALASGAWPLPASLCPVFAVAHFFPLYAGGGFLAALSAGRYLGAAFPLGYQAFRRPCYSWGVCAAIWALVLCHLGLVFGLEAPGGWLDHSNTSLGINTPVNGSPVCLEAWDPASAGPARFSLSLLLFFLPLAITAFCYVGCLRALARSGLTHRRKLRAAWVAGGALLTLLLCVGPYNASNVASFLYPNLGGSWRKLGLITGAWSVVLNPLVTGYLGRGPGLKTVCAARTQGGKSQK

EC50 (human GPR40 [1]) | EC50 (human GPR40 [2]) | SMILES
< 10 nM | 100 to 1000 nM | COc1ccc(F)c(-c2ccc(COc3ccc4c(c3)[C@]3(CC4)C[C@H]3C(=O)O)cc2C2=CCCC2(C)C)c1 [Example 1]
< 10 nM | 100 to 1000 nM | COc1ccc(F)c(-c2ccc(COc3cc(F)c4c(c3F)[C@]3(CC4)C[C@H]3C(=O)O)cc2[C@H]2CCCC2(C)C)c1 (single isomer, unassigned) [Example 33]
10 to 100 nM | 100 to 1000 nM | COc1ccc(F)c(-c2ccc(COc3ccc4c(c3)[C@]3(CC4)C[C@H]3C(=O)O)cc2C2(OC)CCCC2)c1 [Example 22]
< 10 nM | 10 to 100 nM | COc1ccc(F)c(-c2c(F)cc(COc3ccc4c(c3)[C@]3(CC4)C[C@H]3C(=O)O)cc2[C@H]2CCCC2(C)C)c1 (single isomer, unassigned) [Example 16]
< 10 nM | 100 to 1000 nM | COc1ccc(F)c(-c2cc(F)c(COc3ccc4c(c3)[C@]3(CC4)C[C@H]3C(=O)O)cc2[C@H]2CCCC2(C)C)c1 (single isomer, unassigned) [Example 14]
1000 to 10000 nM | > 10000 nM | COc1ccc(F)c(-c2ccc(COc3ccc4c(c3F)[C@@]3(CCC4)C[C@@H]3C(=O)O)cc2[C@H]2CCCC2(C)C)c1 (single isomer, unassigned) [Example 52]
< 10 nM | 10 to 100 nM | COc1ccc(F)c(-c2ccc(COc3ccc4c(c3)[C@]3(CCC4)C[C@H]3C(=O)O)cc2[C@H]2CCCC2(C)C)c1 (single isomer, unassigned) [Example 47]
< 10 nM | 100 to 1000 nM | COc1ccc(F)c(-c2c(F)cc(COc3ccc4c(c3)[C@]3(CC4)C[C@H]3C(=O)O)cc2[C@@H]2CCCC2(C)C)c1 (single isomer, unassigned) [Example 18]
< 10 nM | 10 to 100 nM | COc1cc(-c2ccc(COc3ccc4c(c3)[C@]3(CCC4)C[C@H]3C(=O)O)cc2[C@@H](OC)C(C)(C)C)c(F)cn1 (single isomer, unassigned) [Example 44]
< 10 nM | 100 to 1000 nM | COc1cc(-c2ccc(COc3cc(F)c4c(c3F)[C@]3(CC4)C[C@H]3C(=O)O)cc2[C@H](OC)C(C)(C)C)c(F)cn1 (single isomer, unassigned) [Example 127]
< 10 nM | 100 to 1000 nM | COc1cc(-c2ccc(COc3ccc4c(c3F)[C@]3(CC4)C[C@H]3C(=O)O)cc2[C@@H]2CCCC2(C)C)c(F)cn1 (single isomer, unassigned) [Example 32]
< 10 nM | 10 to 100 nM | COc1ccc(F)c(-c2ccc(COc3ccc4c(c3F)[C@]3(CCC4)C[C@H]3C(=O)O)cc2[C@@H](OC)C(C)(C)C)c1 (single isomer, unassigned) [Example 54]
< 10 nM | 10 to 100 nM | COc1cc(-c2ccc(COc3ccc4c(c3F)[C@]3(CCC4)C[C@H]3C(=O)O)cc2[C@@H](OC)C(C)(C)C)c(F)cn1 (single isomer, unassigned) [Example 53]

SMILES | EC50 (human GPR40 [1]) | EC50 (human GPR40 [2])
COc1ccc(F)c(-c2ccc(COc3ccc4c(c3)[C@]3(CC4)C[C@H]3C(=O)O)cc2C2=CCCC2)c1 [Example 20] | 10 to 100 nM | 100 to 1000 nM
CC(C)COc1ccc(COc2ccc3c(c2)[C@]2(CCC3)C[C@H]2C(=O)O)cc1[C@@H]1CCCC1(C)C (single isomer, unassigned) [Example 130] | 100 to 1000 nM | 1000 to 10000 nM
COCCOc1ccc(COc2ccc3c(c2)[C@]2(CCC3)C[C@H]2C(=O)O)cc1[C@@H]1CCCC1(C)C (single isomer, unassigned) [Example 131] | 100 to 1000 nM | 1000 to 10000 nM
